Results published in patent US20160237045A1, “SUBSTITUTED PHENYLALANINE DERIVATIVES” (BAYER PHARMA AKTIENGESELLSCHAFT, priority 2013, published 2016).
Structures can show the parent of a compound that is named as a salt.

Tests used:
[1] = target: T1, human factor XIa (Homo sapiens, UniProt P03951); assay: Measurement of FXIa inhibition (fluorogenic peptide substrate Boc-Glu(OBzl)-Ala-Arg-AMC); type: biochemical; conditions: factor XIa from Kordia 0.45 nM; 15 min preincubation; 30 min at 22° C.; fluorescence of AMC
T1 construct: purchased Kordia
T1 sequence (P03951 388-625 limits assumed): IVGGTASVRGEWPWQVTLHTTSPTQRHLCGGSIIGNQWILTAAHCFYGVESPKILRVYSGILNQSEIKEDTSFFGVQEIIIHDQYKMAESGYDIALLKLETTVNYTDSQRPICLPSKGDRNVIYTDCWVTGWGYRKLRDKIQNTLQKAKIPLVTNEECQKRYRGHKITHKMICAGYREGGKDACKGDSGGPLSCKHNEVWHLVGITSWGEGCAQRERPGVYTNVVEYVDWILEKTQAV
T1 sequence (P03951 19-387 partner limits assumed): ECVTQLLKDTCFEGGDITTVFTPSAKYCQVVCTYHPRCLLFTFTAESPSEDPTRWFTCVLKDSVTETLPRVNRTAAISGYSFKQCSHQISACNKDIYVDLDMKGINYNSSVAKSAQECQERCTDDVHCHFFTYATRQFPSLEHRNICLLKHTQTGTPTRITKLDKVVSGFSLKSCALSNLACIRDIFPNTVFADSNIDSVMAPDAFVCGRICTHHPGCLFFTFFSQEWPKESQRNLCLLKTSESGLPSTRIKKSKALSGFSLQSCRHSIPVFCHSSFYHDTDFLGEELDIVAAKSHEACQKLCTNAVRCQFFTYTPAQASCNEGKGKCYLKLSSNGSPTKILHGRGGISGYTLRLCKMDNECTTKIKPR
Protocol: a.1) Measurement of FXIa Inhibition
The factor XIa inhibition of the substances according to the invention is determined using a biochemical test system which utilizes the reaction of a peptidic factor XIa substrate to determine the enzymatic activity of human factor XIa. Here, factor XIa cleaves from the peptic factor XIa substrate the C-terminal aminomethylcoumarin (AMC), the fluorescence of which is measured. The determinations are carried out in microtitre plates.
Test substances are dissolved in dimethyl sulphoxide and serially diluted in dimethyl sulphoxide (3000 μM to 0.0078 μM; resulting final concentrations in the test: 50 μM to 0.00013 μM). In each case 1 μl of the diluted substance solutions is placed into the wells of white microtitre plates from Greiner (384 wells). Subsequently, the following are added successively: 20 μl of assay buffer (50 mmol/l Tris buffer pH 7.4; 100 mmol/l sodium chloride; 5 mmol/l calcium chloride; 0.1% bovine serum albumin) and 20 μl of factor XIa from Kordia (0.45 nM in assay buffer). After 15 min of incubation, the enzyme reaction is started by addition of 20 μl of the factor XIa substrate Boc-Glu(OBzl)-Ala-Arg-AMC dissolved in assay buffer (10 μM in assay buffer) from Bachem, the mixture is incubated at room temperature (22° C.) for 30 min and fluorescence is then measured (excitation: 360 nm, emission: 460 nm). The measured emissions of the test batches with test substance are compared to those of control batches without test substance (only dimethyl sulphoxide instead of test substance in dimethyl sulphoxide), and IC50 values are calculated from the concentration/activity relationships.

[2] = tested on: plasma; assay: Determination of anticoagulatory activity: activated partial thromboplastin time (aPTT) in plasma; conditions: in vitro in human and animal plasma (species of Table B not stated); C.K. Prest kit; 37° C., 3 minutes incubation
Protocol: a.4) Determination of Anticoagulatory Activity
The anticoagulatory activity of the test substances is determined in vitro in human and animal plasma (for example mouse, rat, rabbit, pig and dog plasma). To this end, blood is drawn off in a mixing ratio of sodium citrate/blood of 1:9 using a 0.11 molar sodium citrate solution as receiver. Immediately after the blood has been drawn off, it is mixed thoroughly and centrifuged at about 4000 g for 15 minutes. The supernatant is pipetted off.
The activated partial thromboplastin time (aPTT) is determined in the presence of varying concentrations of test substance or the corresponding solvent using a commercial test kit (C.K. Prest from Diagnostica Stago). The test compounds are incubated with the plasma and the PTT reagent (cephalin, kaolin) at 37° C. for 3 minutes. Coagulation is then started by addition of a 25 mM aqueous calcium chloride solution, and the time when coagulation occurs is determined. The concentration of test substance which brings about a 1.5-fold extension of the aPTT is determined.

Row | IC50 [1] [nM] | SMILES | aPTT (concentration of test substance which brings about a 1.5-fold extension of the aPTT) [2] [µmol/L]
1 | 1.9 | NC[C@H]1CC[C@H](C(=O)N[C@@H](Cc2ccc(-c3ccccc3S(=O)(=O)N3CCOCC3)cc2)C(=O)Nc2ccc(-c3nn[nH]n3)cc2)CC1 [Example 1, trans-4-(Aminomethyl)-N-[(2S)-3-[2′-(morpholin-4-ylsulphonyl)biphenyl-4-yl]-1-oxo-1-{[4-(2H-tetrazol-5-yl)phenyl]amino}propan-2-yl]cyclohexanecarboxamide hydrochloride] | 0.17
2 | 2.8 | NC[C@H]1CC[C@H](C(=O)N[C@@H](Cc2ccc(-c3ccccc3C(=O)N3CCOCC3)cc2)C(=O)Nc2ccc(-c3nn[nH]n3)cc2)CC1 [Example 2, trans-4-(Aminomethyl)-N-[(2S)-3-[2′-(morpholin-4-ylcarbonyl)biphenyl-4-yl]-1-oxo-1-{[4-(2H-tetrazol-5-yl)phenyl]amino}propan-2-yl]cyclohexanecarboxamide hydrochloride] | 0.03
3 | 0.7 | CCN(CC)C(=O)c1ccccc1-c1ccc(C[C@H](NC(=O)[C@H]2CC[C@H](CN)CC2)C(=O)Nc2ccc(-c3nn[nH]n3)cc2)cc1 [Example 3, 4′-[(2S)-2-({[trans-4-(Aminomethyl)cyclohexyl]carbonyl}amino)-3-oxo-3-{[4-(2H-tetrazol-5-yl)phenyl]amino}propyl]-N,N-diethylbiphenyl-2-carboxamide hydrochloride] | 0.12
4 | 1.3 | NC[C@H]1CC[C@H](C(=O)N[C@@H](Cc2ccc(-c3ccccc3C(=O)N3CCCCC3)cc2)C(=O)Nc2ccc(-c3nn[nH]n3)cc2)CC1 [Example 4, trans-4-(Aminomethyl)-N-[(2S)-1-oxo-3-[2′-(piperidin-1-ylcarbonyl)biphenyl-4-yl]-1-{[4-(2H-tetrazol-5-yl)phenyl]amino}propan-2-yl]cyclohexanecarboxamide hydrochloride] | 0.07
5 | 11 | NC[C@H]1CC[C@H](C(=O)N[C@@H](Cc2ccc(-c3ccccc3C(=O)N3CCNCC3)cc2)C(=O)Nc2ccc(-c3nn[nH]n3)cc2)CC1 [Example 5, trans-4-(Aminomethyl)-N-[(2S)-1-oxo-3-[2′-(piperazin-1-ylcarbonyl)biphenyl-4-yl]-1-{[4-(2H-tetrazol-5-yl)phenyl]amino}propan-2-yl]cyclohexanecarboxamide hydrochloride] | 0.32
6 | 39 | NC[C@H]1CC[C@H](C(=O)N[C@@H](Cc2ccc(-c3ccccc3C(=O)NC3CCNCC3)cc2)C(=O)Nc2ccc(-c3nn[nH]n3)cc2)CC1 [Example 6, 4′-[(2S)-2-({[trans-4-(Aminomethyl)cyclohexyl]carbonyl}amino)-3-oxo-3-{[4-(2H-tetrazol-5-yl)phenyl]amino}propyl]-N-(piperidin-4-yl)biphenyl-2-carboxamide hydrochloride] | 0.57
7 | 5.5 | NC[C@H]1CC[C@H](C(=O)N[C@@H](Cc2ccc(-c3ccccc3N)cc2)C(=O)Nc2ccc(-c3nn[nH]n3)cc2)CC1 [Example 8, trans-N-[(2S)-3-(2′-Aminobiphenyl-4-yl)-1-oxo-1-{[4-(2H-tetrazol-5-yl)phenyl]amino}propan-2-yl]-4-(aminomethyl)cyclohexanecarboxamide hydrochloride] | 0.24
8 | 7.2 | CN(C)CC(=O)Nc1ccccc1-c1ccc(C[C@H](NC(=O)[C@H]2CC[C@H](CN)CC2)C(=O)Nc2ccc(-c3nn[nH]n3)cc2)cc1 [Example 10, trans-4-(Aminomethyl)-N-[(2S)-3-(2′-{[(dimethylamino)acetyl]amino}biphenyl-4-yl)-1-oxo-1-{[4-(2H-tetrazol-5-yl)phenyl]amino}propan-2-yl]cyclohexanecarboxamide hydrochloride] | 0.23
9 | 3 | NC[C@H]1CC[C@H](C(=O)N[C@@H](Cc2ccc(-c3ccccc3NC(=O)C3CCOCC3)cc2)C(=O)Nc2ccc(-c3nn[nH]n3)cc2)CC1 [Example 11, N-{4′-[(2S)-2-({[trans-4-(Aminomethyl)cyclohexyl]carbonyl}amino)-3-oxo-3-{[4-(2H-tetrazol-5-yl)phenyl]amino}propyl]biphenyl-2-yl}tetrahydro-2H-pyran-4-carboxamide hydrochloride] | 0.16
10 | 8.9 | NC[C@H]1CC[C@H](C(=O)N[C@@H](Cc2ccc(-c3ccccc3NC(=O)C3CCNCC3)cc2)C(=O)Nc2ccc(-c3nnn[nH]3)cc2)CC1 [Example 12, N-{4′-[(2S)-2-({[trans-4-(Aminomethyl)cyclohexyl]carbonyl}amino)-3-oxo-3-{[4-(1H-tetrazol-5-yl)phenyl]amino}propyl]biphenyl-2-yl}piperidine-4-carboxamide hydrochloride] | 0.29
11 | 4 | CC(=O)Nc1ccccc1-c1ccc(C[C@H](NC(=O)[C@H]2CC[C@H](CN)CC2)C(=O)Nc2ccc(-c3nn[nH]n3)cc2)cc1 [Example 13, trans-N-[(2S)-3-(2′-Acetamidobiphenyl-4-yl)-1-oxo-1-{[4-(2H-tetrazol-5-yl)phenyl]amino}propan-2-yl]-4-(aminomethyl)cyclohexanecarboxamide hydrochloride] | 0.18
12 | 4.2 | NC[C@H]1CC[C@H](C(=O)N[C@@H](Cc2ccc(-c3ccccc3CO)cc2)C(=O)Nc2ccc(-c3nn[nH]n3)cc2)CC1 [Example 14, trans-4-(Aminomethyl)-N-[(2S)-3-[2′-(hydroxymethyl)biphenyl-4-yl]-1-oxo-1-{[4-(2H-tetrazol-5-yl)phenyl]amino}propan-2-yl]cyclohexanecarboxamide hydrochloride] | 0.31
13 | 12 | NC[C@H]1CC[C@H](C(=O)N[C@@H](Cc2ccc(-c3ccccc3C(N)=O)cc2)C(=O)Nc2ccc(-c3nc(C(F)(F)C(F)(F)C(=O)O)n[nH]3)cc2)CC1 [Example 15, 3-[5-(4-{[(2S)-2-({[trans-4-(Aminomethyl)cyclohexyl]carbonyl}amino)-3-(2′-carbamoylbiphenyl-4-yl)propanoyl]amino}phenyl)-1H-1,2,4-triazol-3-yl]-2,2,3,3-tetrafluoropropanoic acid hydrochloride] | 0.23
14 | 6.2 | NC[C@H]1CC[C@H](C(=O)N[C@@H](Cc2ccc(-c3ccccc3CN3CCNCC3)cc2)C(=O)Nc2ccc(-c3nnn[nH]3)cc2)CC1 [Example 16, trans-4-(Aminomethyl)-N-[(2S)-1-oxo-3-[2′-(piperazin-1-ylmethyl)biphenyl-4-yl]-1-{[4-(1H-tetrazol-5-yl)phenyl]amino}propan-2-yl]cyclohexanecarboxamide hydrochloride] | 0.08

Row | SMILES | IC50 [1] [nM] | aPTT (concentration of test substance which brings about a 1.5-fold extension of the aPTT) [2] [µmol/L]
15 | CNC(=O)c1ccccc1-c1ccc(C[C@H](NC(=O)[C@H]2CC[C@H](CN)CC2)C(=O)Nc2ccc(-c3nn[nH]n3)cc2)cc1 [Example 7, 4′-[(2S)-2-({[trans-4-(Aminomethyl)cyclohexyl]carbonyl}amino)-3-oxo-3-{[4-(2H-tetrazol-5-yl)phenyl]amino}propyl]-N-methylbiphenyl-2-carboxamide hydrochloride] | 12 | 0.61
16 | NCC(=O)NCC(=O)NCC(=O)Nc1ccccc1-c1ccc(C[C@H](NC(=O)[C@H]2CC[C@H](CN)CC2)C(=O)Nc2ccc(-c3nn[nH]n3)cc2)cc1 [Example 9, Glycylglycyl-N-{4′-[(2S)-2-({[trans-4-(aminomethyl)cyclohexyl]carbonyl}amino)-3-oxo-3-{[4-(2H-tetrazol-5-yl)phenyl]amino}propyl]biphenyl-2-yl}glycinamide hydrochloride] | 5.3 | 0.12
